# Assay results from US12679843B2, “Pyrrolopyrimidine amines as complement inhibitors” (BioCryst Pharmaceuticals, Inc., priority 2020, dated 2026).
# Target: Factor D (Homo sapiens, UniProt P00746)
# Assay: Factor D esterolytic assay (Z-Lys-SBzl thioester substrate, DTNB, 405 nm)
# Assay type: biochemical
# Settings: substrate Z-Lys-SBzl 1.29 mM, 100 mM HEPES, 500 mM NaCl, pH 7.5, 10% DMSO, tested a minimum of three times
# Experimental: The IC50 value of a compound (i.e., the concentration of the compound that inhibits 50% of the enzymatic activity) was calculated according to the procedure reported in U.S. Pat. No. 6,653,340 B1, e.g., column 74 (incorporated by reference).
# Specifically, the compounds were dissolved in a stock solution of DMSO at 10.0 or 100 mM. A portion of this stock solution was added to assay buffer in a final volume of 50 μL. Controls included buffer alone and enzyme solutions to which DMSO was added. Substrate was added to the reaction wells immediately or after incubation at room temperature. The reaction rates were measured spectrophotometrically by the generation of product at 405 nm for 600 sec. Background absorbance at 690 nm was measured and subtracted from the absorbance at 405 nm for each well.
# The reaction rate for enzyme alone was compared to the rate of enzyme in the presence of inhibitor and the percent inhibition was calculated as shown below: Percent Inhibition=[Rate without inhibitor−Rate with inhibitor)/(Rate without inhibitor)]−100 Factor D Esterolytic Assay:
# An established esterolytic assay for the measurement of Factor D activity and inhibition of Factor D activity was used (Kam, C. M.; McRae, B. J.; Harper, J. W.; Niemann, M. A.; Volanakis, J. E.; Powers, J. C. Human complement proteins D. C2, and B Active site mapping with peptide thioester substrates. J Biol. Chem. 1987, 262, 3444-3451). For this assay Z-Lys-SBzl, 1.29 mM (Kim, S.; Narayana, S. V. L; Volanakis, J. E. Mutational analysis of the substrate binding site of human complement Factor D. Biochemistry, 1994, 33, 14393-14399) was used as the substrate for Factor D ([…]). Hydrolysis of this compound by Factor D liberated a free sulfhydryl group which is then reacted with 5,5′-dithiobis(2-nitrobenzoic acid) producing an intense yellow color (Habeeb, A. F. S. A. Reaction of protein sulfhydryl groups with Ellman's Reagent. Methods in Enzymol. 1976, 25, 457-464). The assays were performed in 96 well microtiter plates and rates of hydrolysis were monitored at 405 nm on a Biotek Synergy H1 plate reader. Hydrolysis rates were reported as change in mOD/min. The assay was conducted in 100 mM HEPES, 500 mM NaCl, pH 7.5 containing 10% DMSO in a final volume of 50 μL per well.
# An IC50, a compound concentration which inhibits 50% of the enzymatic activity, was calculated. Compounds in the examples were tested a minimum of three times.
# Sequence of Factor D (P00746 26-253): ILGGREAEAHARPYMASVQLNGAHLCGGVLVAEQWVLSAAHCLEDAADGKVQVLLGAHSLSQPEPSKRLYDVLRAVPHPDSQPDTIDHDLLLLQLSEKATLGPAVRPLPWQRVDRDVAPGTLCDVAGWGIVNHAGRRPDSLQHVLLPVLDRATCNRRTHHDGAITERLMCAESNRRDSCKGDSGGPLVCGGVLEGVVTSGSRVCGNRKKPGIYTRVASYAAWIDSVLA
row,IC50 [nM],SMILES
1,< 100,"C[C@@]12C[C@@H](C(=O)Nc3cccc(Br)n3)N(C(=O)Cn3c4ccccc4c4c(N)ncnc43)[C@@H]1C2 [Compound 9a, (1R,3S,5R)-2-(2-(4-amino-9H-pyrimido[4,5-b]indol-9-yl)acetyl)-N-(6-bromopyridin-2-yl)-5-methyl-2-azabicyclo[3.1.0]hexane-3-carboxamide]"
2,< 100,"Cc1ccc2c(c1)c1c(N)ncnc1n2CC(=O)N1[C@H](C(=O)Nc2nc(Br)ccc2C)C[C@@]2(C)C[C@@H]12 [Compound 10b, (1R,3S,5R)-2-(2-(4-amino-6-methyl-9H-pyrimido[4,5-b]indol-9-yl)acetyl)-N-(6-bromo-3-methylpyridin-2-yl)-5-methyl-2-azabicyclo[3.1.0]hexane-3-carboxamide]"
3,< 100,"Cc1ccc(Br)nc1NC(=O)[C@@H]1C[C@@]2(C)C[C@H]2N1C(=O)Cn1c2ccc(C(F)(F)F)cc2c2c(N)ncnc21 [Compound 11f, (1R,3S,5R)-2-(2-(4-amino-6-(trifluoromethyl)-9H-pyrimido[4,5-b]indol-9-yl)acetyl)-N-(6-bromo-3-methylpyridin-2-yl)-5-methyl-2-azabicyclo[3.1.0]hexane-3-carboxamide]"
4,< 100,"Cc1ccc(Br)nc1NC(=O)[C@@H]1C[C@@]2(C)C[C@H]2N1C(=O)Cn1c2ccccc2c2c(N)ncnc21 [Compound 12a, (1R,3S,5R)-2-(2-(4-amino-9H-pyrimido[4,5-b]indol-9-yl)acetyl)-N-(6-bromo-3-methylpyridin-2-yl)-5-methyl-2-azabicyclo[3.1.0]hexane-3-carboxamide]"
5,100 to 1000,"Nc1ncnc2c1c1ccccc1n2CC(=O)N1CCC[C@H]1C(=O)Nc1cccc(Br)n1 [Compound 13b, (S)-1-(2-(4-amino-9H-pyrimido[4,5-b]indol-9-yl)acetyl)-N-(6-bromopyridin-2-yl)pyrrolidine-2-carboxamide]"
6,< 100,"Cc1ccc(Br)nc1NC(=O)[C@@H]1C[C@@H](F)CN1C(=O)Cn1c2ccc(C(F)(F)F)cc2c2c(N)ncnc21 [Compound 14a, (2S,4R)-1-(2-(4-amino-6-(trifluoromethyl)-9H-pyrimido[4,5-b]indol-9-yl)acetyl)-N-(6-bromo-3-methylpyridin-2-yl)-4-fluoropyrrolidine-2-carboxamide]"
7,< 100,"Cc1ccc(Br)nc1NC(=O)[C@@H]1C[C@H]2C[C@H]2N1C(=O)Cn1c2ccc(C(F)(F)F)cc2c2c(N)ncnc21 [Compound 15a, (1R,3S,5R)-2-(2-(4-amino-6-(trifluoromethyl)-9H-pyrimido[4,5-b]indol-9-yl)acetyl)-N-(6-bromo-3-methylpyridin-2-yl)-2-azabicyclo[3.1.0]hexane-3-carboxamide]"
8,< 100,"Nc1ncnc2c1c1ccc(C(F)(F)F)cc1n2CC(=O)N1[C@@H]2C[C@@H]2C[C@H]1C(=O)Nc1cccc(Br)n1 [Compound 16e, (1R,3S,5R)-2-(2-(4-amino-7-(trifluoromethyl)-9H-pyrimido[4,5-b]indol-9-yl)acetyl)-N-(6-bromopyridin-2-yl)-2-azabicyclo[3.1.0]hexane-3-carboxamide]"
9,< 100,"CC(C)(C)OC(=O)Nc1ccc2c3c(N)ncnc3n(CC(=O)N3[C@@H]4C[C@@H]4C[C@H]3C(=O)Nc3cccc(Br)n3)c2c1 [Compound 17f, tert-butyl (4-amino-9-(2-((1R,3S,5R)-3-((6-bromopyridin-2-yl)carbamoyl)-2-azabicyclo[3.1.0]hexan-2-yl)-2-oxoethyl)-9H-pyrimido[4,5-b]indol-7-yl)carbamate]"
10,< 100,"Nc1ccc2c3c(N)ncnc3n(CC(=O)N3[C@@H]4C[C@@H]4C[C@H]3C(=O)Nc3cccc(Br)n3)c2c1 [Compound 18a, (1R,3S,5R)—N-(6-bromopyridin-2-yl)-2-(2-(4,7-diamino-9H-pyrimido[4,5-b]indol-9-yl)acetyl)-2-azabicyclo[3.1.0]hexane-3-carboxamide]"
11,< 100,"Nc1ncnc2c1c1ccccc1n2CC(=O)N1C[C@H](F)C[C@H]1C(=O)Nc1cccc(Br)n1 [Compound 19a, (2S,4R)-1-(2-(4-amino-9H-pyrimido[4,5-b]indol-9-yl)acetyl)-N-(6-bromopyridin-2-yl)-4-fluoropyrrolidine-2-carboxamide]"
12,< 100,"Nc1ncnc2c1c1ccccc1n2CC(=O)N1C[C@H](F)C[C@H]1C(=O)NCc1cccc(Cl)c1F [Compound 20a, (2S,4R)-1-(2-(4-amino-9H-pyrimido[4,5-b]indol-9-yl)acetyl)-N-(3-chloro-2-fluorobenzyl)-4-fluoropyrrolidine-2-carboxamide]"
13,< 100,"Cc1ccc2c(c1)c1c(N)ncnc1n2CC(=O)N1C[C@H](F)C[C@H]1C(=O)Nc1cccc(Br)n1 [Compound 21a, (2S,4R)-1-(2-(4-amino-6-methyl-9H-pyrimido[4,5-b]indol-9-yl)acetyl)-N-(6-bromopyridin-2-yl)-4-fluoropyrrolidine-2-carboxamide]"
14,< 100,"Cc1ccc2c3c(N)ncnc3n(CC(=O)N3[C@@H]4C[C@@H]4C[C@H]3C(=O)Nc3cccc(Br)n3)c2c1 [Compound 23f, (1R,3S,5R)-2-(2-(4-amino-7-methyl-9H-pyrimido[4,5-b]indol-9-yl)acetyl)-N-(6-bromopyridin-2-yl)-2-azabicyclo[3.1.0]hexane-3-carboxamide]"
15,< 100,"Cc1ccc2c3c(N)ncnc3n(CC(=O)N3[C@H](C(=O)Nc4cccc(Br)n4)C[C@@]4(C)C[C@@H]34)c2c1 [Compound 24a, (1R,3S,5R)-2-(2-(4-amino-7-methyl-9H-pyrimido[4,5-b]indol-9-yl)acetyl)-N-(6-bromopyridin-2-yl)-5-methyl-2-azabicyclo[3.1.0]hexane-3-carboxamide]"
16,< 100,"Nc1ncnc2c1c1cc(C(F)(F)F)ccc1n2CC(=O)N1C[C@H](F)C[C@H]1C(=O)NCc1cccc(Cl)c1F [Compound 25a, (2S,4R)-1-(2-(4-amino-6-(trifluoromethyl)-9H-pyrimido[4,5-b]indol-9-yl)acetyl)-N-(3-chloro-2-fluorobenzyl)-4-fluoropyrrolidine-2-carboxamide]"
17,< 100,"Nc1ncnc2c1c1cc(C(F)(F)F)ccc1n2CC(=O)N1C[C@H](F)C[C@H]1C(=O)Nc1cccc(Br)n1 [Compound 26a, (2S,4R)-1-(2-(4-amino-6-(trifluoromethyl)-9H-pyrimido[4,5-b]indol-9-yl)acetyl)-N-(6-bromopyridin-2-yl)-4-fluoropyrrolidine-2-carboxamide]"
18,< 100,"Nc1ncnc2c1c1cc(C(F)(F)F)ccc1n2CC(=O)N1[C@@H]2C[C@@H]2C[C@H]1C(=O)Nc1cccc(Br)n1 [Compound 27a, (1R,3S,5R)-2-(2-(4-amino-6-(trifluoromethyl)-9H-pyrimido[4,5-b]indol-9-yl)acetyl)-N-(6-bromopyridin-2-yl)-2-azabicyclo[3.1.0]hexane-3-carboxamide]"
19,< 100,"C[C@@]12C[C@@H](C(=O)Nc3cccc(Br)n3)N(C(=O)Cn3c4ccc(C(F)(F)F)cc4c4c(N)ncnc43)[C@@H]1C2 [Compound 28a, (1R,3S,5R)-2-(2-(4-amino-6-(trifluoromethyl)-9H-pyrimido[4,5-b]indol-9-yl)acetyl)-N-(6-bromopyridin-2-yl)-5-methyl-2-azabicyclo[3.1.0]hexane-3-carboxamide]"
20,< 100,"Nc1ncnc2c1c1ccncc1n2CC(=O)N1[C@@H]2C[C@@H]2C[C@H]1C(=O)Nc1cccc(Br)n1 [Compound 29f, (1R,3S,5R)-2-(2-(4-amino-9H-pyrido[4′,3′:4,5]pyrrolo[2,3-d]pyrimidin-9-yl)acetyl)-N-(6-bromopyridin-2-yl)-2-azabicyclo[3.1.0]hexane-3-carboxamide]"
21,< 100,"Cc1cccc2c3c(N)ncnc3n(CC(=O)N3[C@@H]4C[C@@H]4C[C@H]3C(=O)Nc3cccc(Br)n3)c12 [Compound 30f, (1R,3S,5R)-2-(2-(4-amino-8-methyl-9H-pyrimido[4,5-b]indol-9-yl)acetyl)-N-(6-bromopyridin-2-yl)-2-azabicyclo[3.1.0]hexane-3-carboxamide]"
22,< 100,"Nc1ncnc2c1c1ncccc1n2CC(=O)N1[C@@H]2C[C@@H]2C[C@H]1C(=O)Nc1cccc(Br)n1 [Compound 31f, (1R,3S,5R)-2-(2-(4-amino-9H-pyrido[2′,3′:4,5]pyrrolo[2,3-d]pyrimidin-9-yl)acetyl)-N-(6-bromopyridin-2-yl)-2-azabicyclo[3.1.0]hexane-3-carboxamide]"
23,< 100,"Nc1ncnc2c1c1cc(F)ccc1n2CC(=O)N1[C@@H]2C[C@@H]2C[C@H]1C(=O)Nc1cccc(Br)n1 [Compound 32f, (1R,3S,5R)-2-(2-(4-amino-6-fluoro-9H-pyrimido[4,5-b]indol-9-yl)acetyl)-N-(6-bromopyridin-2-yl)-2-azabicyclo[3.1.0]hexane-3-carboxamide]"
